These results are taken from US20130045939A1, “FATTY ACID MACROLIDE DERIVATIVES AND THEIR USES” (CATABASIS PHARMACEUTICALS, INC., priority 2010, published 2013).

The assay relates to NF-κB. Kind of assay: NF-κB luciferase reporter assay in LPS-stimulated RAW 264.7 macrophages. It counts as cell-based. The conditions noted are these: Mus musculus, RAW264.7; RAW 264.7 cells stably expressing 3× NFκB response element luciferase reporter; 2 hour pretreatment, 200 ng/ml LPS for 3 hours; 6 dose point titrations in triplicate. The procedure:
RAW 264.7 cells stably expressing a 3× NFκB response element-drive luciferase reporter were seeded into 96 well plates in sera-free medium (Optimen) 18 hours prior to compound application. Compounds of the invention were prepared by first making 100 mM stock solutions in EtOH. Stock solutions were then diluted 1:100 in low LPS FBS (Gemini BenchMark 100-106), mixed vigorously and allowed to incubate at room temperature for 30 minutes. 1:2 serial dilutions were then made in FBS supplemented with 1% EtOH, mixed vigorously, and again allowed to incubate at room temperature for 30 minutes before adding to RAW 264.7 reporter cells (final concentrations: 10% FBS, 100 uM highest compound dilution, 0.1% EtOH) for a 2 hour pretreatment prior to stimulation with LPS. Cells were then stimulated with 200 ng/ml LPS or vehicle control for 3 hours in the presence of the compounds of the invention. A set of six vehicles was left unstimulated with LPS in order to measure the assay floor. […] After the 3 h incubation period with LPS, cell viability was measured by reading fluorescence (excitation 550 nm, emission 595 nm) with a Perkin Elmer Victor V plate reader. […] Luciferase activity was measured with the Perkin Elmer Victor V plate reader. NF-κB activity was expressed as a percent of the vehicle control wells (stimulated with LPS). […]

pIC50: −log10 of the molar value.

With `CC/C=C\C/C=C\C/C=C\C/C=C\C/C=C\C/C=C\CCC(=O)N1C[C@H](C)C[C@@](C)(O)[C@H](O)[C@@H](C)[C@H](O)[C@@H](C)C(=O)O[C@H](CC)[C@@](C)(O)[C@H](O)[C@H]1C` [Ia-3, (2R,3S,4R,5R,8R,10R,11R,12S,13S,14R)-6-((4Z,7Z,10Z,13Z,16Z,19Z)-docosa-4,7,10,13,16,19-hexaenoyl)-2-ethyl-3,4,10,11,13-pentahydroxy-3,5,8,10,12,14-hexamethyl-1-oxa-6-azacyclopentadecan-15-one], the pIC50 was 4.74.
